Assay results published in US20240109969A1, “Dosing Regimen for Therapies Comprising Bispecific Anti-EGFR/C-Met Antibodies” (Janssen Biotech, Inc., priority 2022, published 2024).
“Also recorded” adds a separate entry of the source.

Legend:
[1] = target: T1, breast cancer resistance protein (BCRP) (Homo sapiens, UniProt Q9UNQ0); details: cited from earlier work
T1 sequence (Q9UNQ0 1-655): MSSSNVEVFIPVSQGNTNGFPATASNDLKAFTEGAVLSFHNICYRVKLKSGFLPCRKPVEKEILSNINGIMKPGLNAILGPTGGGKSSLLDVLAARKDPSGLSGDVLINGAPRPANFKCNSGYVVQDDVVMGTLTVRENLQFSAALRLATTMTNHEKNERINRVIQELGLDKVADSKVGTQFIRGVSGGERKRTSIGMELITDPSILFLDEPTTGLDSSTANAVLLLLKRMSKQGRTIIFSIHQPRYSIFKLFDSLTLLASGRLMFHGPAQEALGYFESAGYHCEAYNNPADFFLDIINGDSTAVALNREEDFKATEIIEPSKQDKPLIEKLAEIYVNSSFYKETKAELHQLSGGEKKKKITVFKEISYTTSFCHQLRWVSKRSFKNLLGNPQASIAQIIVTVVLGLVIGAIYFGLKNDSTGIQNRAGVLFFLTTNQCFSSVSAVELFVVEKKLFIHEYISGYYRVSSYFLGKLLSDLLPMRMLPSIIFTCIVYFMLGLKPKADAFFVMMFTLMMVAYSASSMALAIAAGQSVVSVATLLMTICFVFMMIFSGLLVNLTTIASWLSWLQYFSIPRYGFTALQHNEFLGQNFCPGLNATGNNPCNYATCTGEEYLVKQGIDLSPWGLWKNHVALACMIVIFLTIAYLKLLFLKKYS

[2] = target: T2, Organic Cation Transporter 1 (OCT1) (Homo sapiens, UniProt O15245); details: cited from earlier work
T2 sequence (O15245 1-554): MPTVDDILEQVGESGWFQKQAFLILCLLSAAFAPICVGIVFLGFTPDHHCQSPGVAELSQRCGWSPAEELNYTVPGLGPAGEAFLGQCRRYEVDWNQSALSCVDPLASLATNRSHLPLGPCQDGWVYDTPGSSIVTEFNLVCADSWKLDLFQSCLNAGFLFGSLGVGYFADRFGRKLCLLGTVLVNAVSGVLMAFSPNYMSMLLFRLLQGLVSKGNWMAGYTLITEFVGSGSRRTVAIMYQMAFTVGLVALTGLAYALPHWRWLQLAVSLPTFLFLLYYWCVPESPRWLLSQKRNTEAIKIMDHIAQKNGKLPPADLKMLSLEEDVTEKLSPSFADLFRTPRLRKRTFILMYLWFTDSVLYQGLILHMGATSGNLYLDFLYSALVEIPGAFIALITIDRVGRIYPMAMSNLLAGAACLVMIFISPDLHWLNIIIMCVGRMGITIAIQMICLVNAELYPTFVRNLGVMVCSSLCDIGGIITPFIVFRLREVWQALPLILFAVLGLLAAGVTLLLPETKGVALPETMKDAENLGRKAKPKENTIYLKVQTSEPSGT

[3] = target: P-glycoprotein (P-gp) (Homo sapiens, UniProt P08183); details: cited from earlier work
P-glycoprotein (P-gp), sequence (P08183 whole entry): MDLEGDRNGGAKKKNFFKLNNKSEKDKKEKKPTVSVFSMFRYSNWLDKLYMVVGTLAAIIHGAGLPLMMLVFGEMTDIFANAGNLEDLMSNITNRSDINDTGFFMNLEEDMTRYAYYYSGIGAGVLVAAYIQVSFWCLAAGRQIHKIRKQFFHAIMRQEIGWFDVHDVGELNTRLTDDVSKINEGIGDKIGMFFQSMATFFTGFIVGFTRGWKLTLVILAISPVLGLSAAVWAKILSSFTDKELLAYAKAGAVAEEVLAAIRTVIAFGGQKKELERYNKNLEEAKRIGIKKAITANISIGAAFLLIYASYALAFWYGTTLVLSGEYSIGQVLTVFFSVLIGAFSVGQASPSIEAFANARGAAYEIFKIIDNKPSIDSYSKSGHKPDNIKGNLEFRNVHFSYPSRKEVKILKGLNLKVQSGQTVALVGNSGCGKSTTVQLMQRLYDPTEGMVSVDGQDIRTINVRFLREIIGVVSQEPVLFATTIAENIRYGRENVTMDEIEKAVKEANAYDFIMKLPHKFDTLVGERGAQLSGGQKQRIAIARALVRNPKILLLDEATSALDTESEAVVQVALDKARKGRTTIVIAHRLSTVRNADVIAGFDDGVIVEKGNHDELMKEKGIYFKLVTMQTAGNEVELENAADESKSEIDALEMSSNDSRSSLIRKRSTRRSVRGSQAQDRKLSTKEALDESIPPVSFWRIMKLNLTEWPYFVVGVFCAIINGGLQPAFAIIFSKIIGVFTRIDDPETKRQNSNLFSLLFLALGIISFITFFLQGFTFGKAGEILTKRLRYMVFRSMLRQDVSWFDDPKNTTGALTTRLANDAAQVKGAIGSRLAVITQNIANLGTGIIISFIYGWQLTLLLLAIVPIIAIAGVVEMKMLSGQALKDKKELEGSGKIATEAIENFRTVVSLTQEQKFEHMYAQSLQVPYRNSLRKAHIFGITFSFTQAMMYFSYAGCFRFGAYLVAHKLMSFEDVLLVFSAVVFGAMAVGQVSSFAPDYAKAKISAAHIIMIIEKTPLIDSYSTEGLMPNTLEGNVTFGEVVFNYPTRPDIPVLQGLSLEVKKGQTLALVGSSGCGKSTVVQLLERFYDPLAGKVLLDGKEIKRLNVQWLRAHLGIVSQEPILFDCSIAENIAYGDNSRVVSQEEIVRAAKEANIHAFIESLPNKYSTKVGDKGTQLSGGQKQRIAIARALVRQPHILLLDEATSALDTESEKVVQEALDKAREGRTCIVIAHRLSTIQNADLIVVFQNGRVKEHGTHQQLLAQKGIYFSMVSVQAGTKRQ

[4] = target: T3, multidrug resistance protein 4 (MRP4) (Homo sapiens, UniProt O15439); details: cited from earlier work
T3 sequence (O15439 1-1325): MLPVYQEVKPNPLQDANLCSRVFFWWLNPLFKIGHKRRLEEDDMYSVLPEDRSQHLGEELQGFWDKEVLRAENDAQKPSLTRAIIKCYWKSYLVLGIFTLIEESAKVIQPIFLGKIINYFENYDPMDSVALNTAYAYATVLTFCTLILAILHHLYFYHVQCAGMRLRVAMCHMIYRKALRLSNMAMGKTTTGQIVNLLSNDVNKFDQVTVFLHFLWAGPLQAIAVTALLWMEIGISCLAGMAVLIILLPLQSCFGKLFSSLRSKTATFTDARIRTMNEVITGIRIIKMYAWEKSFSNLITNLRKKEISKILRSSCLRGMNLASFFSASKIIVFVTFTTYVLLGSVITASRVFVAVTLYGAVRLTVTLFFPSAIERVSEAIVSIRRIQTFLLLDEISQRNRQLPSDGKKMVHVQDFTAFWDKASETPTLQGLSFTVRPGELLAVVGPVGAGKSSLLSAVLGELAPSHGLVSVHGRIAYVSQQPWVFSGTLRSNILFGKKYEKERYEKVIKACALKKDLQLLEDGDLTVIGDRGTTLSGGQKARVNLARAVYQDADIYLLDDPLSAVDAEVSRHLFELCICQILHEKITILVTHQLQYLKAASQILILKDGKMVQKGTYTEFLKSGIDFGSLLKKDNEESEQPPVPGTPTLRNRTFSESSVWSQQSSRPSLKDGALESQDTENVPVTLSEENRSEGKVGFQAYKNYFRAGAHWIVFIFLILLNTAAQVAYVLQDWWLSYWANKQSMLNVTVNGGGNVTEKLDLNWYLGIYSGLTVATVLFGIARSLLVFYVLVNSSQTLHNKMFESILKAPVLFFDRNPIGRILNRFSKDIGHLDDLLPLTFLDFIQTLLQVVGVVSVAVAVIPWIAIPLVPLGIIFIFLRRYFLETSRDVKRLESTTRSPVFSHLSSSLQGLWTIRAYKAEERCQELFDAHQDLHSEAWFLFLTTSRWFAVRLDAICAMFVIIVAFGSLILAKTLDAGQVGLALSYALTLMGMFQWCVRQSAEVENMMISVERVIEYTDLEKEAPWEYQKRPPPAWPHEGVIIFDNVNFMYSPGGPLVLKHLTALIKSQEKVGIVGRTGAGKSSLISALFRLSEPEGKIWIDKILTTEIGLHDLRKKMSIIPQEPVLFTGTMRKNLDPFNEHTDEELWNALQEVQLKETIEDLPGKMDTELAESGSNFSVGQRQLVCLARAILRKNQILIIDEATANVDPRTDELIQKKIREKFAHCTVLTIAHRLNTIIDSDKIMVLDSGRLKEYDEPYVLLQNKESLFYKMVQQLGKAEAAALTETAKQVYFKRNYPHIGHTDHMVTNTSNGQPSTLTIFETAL

## amivantamab
Preliminary cycle 1 PK data (n=9), FIG. 3A-C
  impact of chemotherapy on amivantamab exposure: no impact; also recorded: not impacted
preliminary, FIG. 4A-B
  amivantamab trough concentration / exposure, Q3W (21-day cycle) versus monotherapy Q2W (28-day cycle, 1050/1400 mg): Similar

## C=CC(=O)Nc1cc(Nc2nccc(-n3cc(CN(C)C)c(-c4ccccc4)n3)n2)c(OC)cc1N1CCOCC1 [Lazertinib, N-(5-(4-(4-((dimethylamino)methyl)-3-phenyl-1H-pyrazol-1-yl)pyrimidin-2-ylamino)-4-methoxy-2-morpholinophenyl)acrylamide]
[1]
  inhibition of BCRP: inhibitor
[2]
  inhibition of OCT1: inhibitor
[3]
  inhibition of P-gp: inhibitor
[4]
  inhibition of MRP4: inhibitor
